Assay results from US20260207637A1, “MODULATOR FOR PROMOTING BINDING OF BUTYROPHILIN 3A1/2A1” (priority 2023, published 2026).
Where two headings read alike, the source gives them in different places.

Assays:
MIApaca/FG2 cells = test: EC50 assay of small molecule activated γδ T cells to kill MIApaca/FG2 tumor cells (3-fold dilution protocol); assay type: cell-based; conditions: 0.05-100 nM, read-out: MIApaca killing (EC50)
Procedure: γδT cells and MIApaca/FG2 tumor cell lines were expanded and cultured in vitro. MIApaca/FG2 cells were digested, and the cells were counted and resuspended in DMEM complete medium, the density of the cell suspension was adjusted and added into a 96-well plate at 5×10^3 cells/100 […]/well for overnight incubation. On the next day, the test compound and the control compound were diluted at a 3-fold ratio with DMSO, and 4 μL of the diluted compound was added to 96 μL of culture medium for 25-fold dilution. 5 μL of 25-fold diluted compound was transferred to the corresponding well which had been plated with tumor cells, and the actual detection concentration was in the range of 0.05-100 nM. γδT cells were resuspended in γδT complete medium, and the density of the cell suspension was adjusted according to the effector-target ratio of E:T=2:1, and then the cell was added to the corresponding well at 1×10^4 cells/100 μL/well. After co-culture at 37° C., 5% CO2 for 20 hours, the cells were centrifuged. The supernatant was removed, and 50 μL of cell lysate containing fluorescein substrate was added to each well. After standing for 18 minutes in the dark, the signal of chemiluminescence was detected. The EC50 value was calculated by four-parameter fitting, with the corresponding signal value of the well with only tumor cells as the minimum killing value, and the corresponding value of the well without tumor cells as the maximum killing value. The killing data of MIApaca/FG2 cells is as follows: […]

[1] = Stability experiment of compounds in human liver microsomes; assay type: in vitro ADME; conditions: NADPH, 37° C., read-out: T1/2 in human liver microsomes
Procedure: Compounds were prepared as a 10 mM stock solution with DMSO and then diluted with 80% acetonitrile-water to a 100 μM working solution for later use. Human liver microsomes were obtained from BIOIVT.
(1) The liver microsomes taken out from the refrigerator were placed in a 37° C. water bath thermostatic oscillator, pre-incubated for 5 min, and thawed for later use.
(2) A certain amount of NADPH was weighed and added to an appropriate amount of magnesium chloride solution to dissolve into a 2 mM solution for later use.
(3) A mixed solution of the warm incubation system (containing no β-NADPH) was prepared according to the proportions in the “composition of the experimental warm incubation system” above and dispensed at 165 μL/tubes (45 μL/tube for the negative control group and 120 μL/tube for the positive control group).
(4) For the sample at 0 min: 200 μL of internal standard working precipitant was added and then 30 μL of NADPH solution was added.
(5) For other samples: 135 μL NADPH solution was added to initiate the reaction (45 μL magnesium chloride solution was added for the negative control group), and incubated in a 37° C. water bath for 5, 15, 30, and 60 min (incubated in a 37° C. water bath for 60 min for the negative control group), then 60 μL was sampled and added to 200 µL of precipitant containing internal standard.
(6) For the positive control group: 90 L NADPH solution was added to initiate the reaction, and incubated in a 37° C. water bath for 5, 15 min, then 60 μL was sampled and added to 200 μL of precipitant containing internal standard.
(7) For neat sample: 297 μL of water was pipetted into a tube, 1000 μL of internal standard working solution was added, and 3 μL of test compound working solution was added.
(8) All samples were vortexed and centrifuged.
(9) 150 μL of the supernatant was sampled and added to 150 μL of water, mixed uniformly by vortex, and analyzed by LC-MS/MS. The half-life stability data of human liver microsomes is as follows: […]

[2] = Binding rate test of compounds and human plasma protein (equilibrium dialysis); assay type: in vitro ADME; conditions: human plasma, equilibrium dialysis 6 hours, 37° C.
Procedure: (1) The dry dialysis membrane was soaked with ultrapure water for 20 min or more than 20 min, then soaked with 20% ethanol for 30 min to 1 h, and the membrane was rinsed with ultrapure water 2-3 times. Finally, the membrane was soaked with ultrapure water for 20 minutes for later use.
(2) The frozen plasma was thawed in a water bath at 37° C.
(3) The test compound was diluted into plasma preheated to 37° C. at a final concentration of 1 μM, and the final concentration of the control compound warfarin in plasma was 2 μM.
(4) The pre-treated dialysis membrane was assembled into the dialysis plate according to the specification of the product, and 120 μL of the receiving solution (100 mM phosphate buffer solution added 0.002% Tween 80) was added to one side of the permeable membrane in each dialysis well.
(5) 20 μL of each of the final solutions of the test compound and the control compound were added into a 96-well sample plate in duplicate, and the TO sample was obtained, which was stored in a refrigerator at −20° C. Another 20 μL of the above final solution was added to the other side of the membrane in the dialysis device in duplicate, and incubated at 37° C. by shaking at constant temperature for 6 hours.
(6) After 6 hours of incubation, 20 L of each of the dialyzed receiving solution and the administered plasma were weighed to obtain sample B and sample A in duplicate. The corresponding volume of corresponding blank plasma or receiving solution was added to sample B and sample A, respectively, so that the volume ratio of plasma to buffer in each sample well was 1:1. 300 μL of acetonitrile solution containing internal standard was added to all sample wells, and centrifuged after mixed uniformly.
(7) 200 μL of ultrapure water (150 μL for the control group) was added into the corresponding sample wells of the 96-well sample plate, and 300 μL of the supernatant (150 μL for the control group) was added into the sample well; the samples were analyzed after mixed uniformly. The free percentage and recovery rate of the compound in plasma were calculated using the following formula: Plasma protein binding rate (%)=1−free percentage, wherein free percentage (%)=CB/CA
wherein CB is the concentration of the compound in the receiving solution after equilibrium dialysis, CA is the concentration of the compound in the drug-dosed plasma after equilibrium dialysis, and CT0 is the initial concentration of the compound in plasma.

[3] = γδT cells + MIApaca/FG2, E:T=2:1, co-culture 20 hours
[4] = Homo sapiens, MIA PaCa-2, γδT cells + MIApaca/FG2, E:T=2:1, co-culture 20 hours

Structure (SMILES) | EC50 (MIApaca/FG2 cells; [3]) | EC50 (MIApaca/FG2 cells; [4]) | half-life [1] | fraction unbound at 6 h, 1 μM [2]
CC(C)OC(=O)[C@H](C)NP(=O)(CC/C=C(/CO)C(F)(F)F)Oc1ccccc1 (stereo partly drawn) [Compound 24, isopropyl (phenoxy((Z)-5,5,5-trifluoro-4-(hydroxymethyl)pent-3-en-1-yl)phosphoryl)-L-alaninate] | 0.78 nM | – | – | –
C/C(=C\CCP(=O)(N[C@@H](C)C(=O)O[C@@H]1CCOC1)Oc1cccc2ccccc12)CO (stereo partly drawn) [Compound 17] | 0.12 nM | – | – | –
C/C(=C\CCP(=O)(N[C@@H](C)C(=O)OC1CCOCC1)Oc1ccccc1)CO (stereo partly drawn) [Compound 20] | – | 0.48 nM | 24 min | 0.227
C/C(=C\CCP(=O)(N[C@@H](C)C(=O)O[C@@H]1CCOC1)Oc1ccccc1)CO (stereo partly drawn) [Compound 7, (R)-Tetrahydrofuran-3-yl (((E)-5-hydroxy-4-methylpent-3-en-1-yl)(phenoxy)phosphoryl)-L-alaninate] | – | – | 21.6 min | 0.222
C/C(=C\CCP(=O)(NC(C)(C)C(=O)O[C@@H]1CCOC1)Oc1ccccc1)CO (stereo partly drawn) [Compound 26, (R)-tetrahydrofuran-3-yl 2-((((E)-5-hydroxy-4-methylpent-3-en-1-yl)(phenoxy)phosphoryl)amino)-2-methylpropanoate] | 0.1 nM | – | – | –
C/C(=C\CCP(=O)(N[C@@H](C)C(=O)O[C@@H]1CCOC1)Oc1ccc(Cl)cc1)CO (stereo partly drawn) [Compound 15] | 0.2 nM | – | – | –
C/C(=C\CCP(=O)(N[C@@H](C)C(=O)O[C@H]1CCOC1)Oc1ccccc1)CO (stereo partly drawn) [Compound 8, (S)-tetrahydrofuran-3-yl (((E)-5-hydroxy-4-methylpent-3-en-1-yl)(phenoxy)phosphoryl)-L-alaninate] | – | – | 27.3 min | 0.168
C/C(=C\CCP(=O)(N[C@@H](C)C(=O)O[C@@H]1CCOC1)Oc1ccc(C)cc1)CO (stereo partly drawn) [Compound 16] | 0.55 nM | – | – | –
CC(C)OC(=O)[C@H](C)NP(=O)(CC/C=C(\F)CO)Oc1ccccc1 (stereo partly drawn) [Compound 23, Isopropyl (((Z)-4-fluoro-5-hydroxy-3-en-1-yl)(phenoxy)phosphoryl)-L-alaninate] | 3.96 nM | – | – | –
C/C(=C\CC(F)(F)P(=O)(N[C@@H](C)C(=O)OC1CCOCC1)Oc1ccccc1)CO (stereo partly drawn) [Compound 38] | 0.65 nM | – | – | –
C/C(=C\CCP(=O)(N[C@@H](C)C(=O)OC1CCN(CC(F)(F)F)CC1)Oc1ccccc1)CO (stereo partly drawn) [Compound 31] | – | 0.13 nM | 3.91 min | 0.129
C/C(=C\CC[P@@](=O)(N[C@@H](C)C(=O)O[C@@H]1CCOC1)Oc1ccccc1)CO (single isomer, unassigned) [Compound 18] | – | 0.2 nM | 20.9 min | 0.178
C/C(=C\CCP(=O)(N[C@@H](C)C(=O)OCCO)Oc1ccccc1)CO (stereo partly drawn) [Compound 25, 2-Hydroxyethyl (((E)-5-hydroxy-4-methylpent-3-en-1-yl)(phenoxy)phosphoryl)-L-alaninate] | 0.17 nM | – | – | –
C/C(=C\CCP(=O)(N[C@@H](C)C(=O)O[C@H]1CO[C@H]2OCC[C@H]21)Oc1ccccc1)CO (stereo partly drawn) [Compound 32, (3R,3aS,6aR)-hexahydrofuran[2,3-b]furan-3-yl (((E)-5-hydroxy-4-methylpent-3-en-1-yl)(phenoxy)phosphoryl)-L-alaninate] | – | 0.21 nM | 11.4 min | 0.214
C/C(=C\CCP(=O)(N[C@@H](C)C(=O)OC1(C#N)CCCC1)Oc1ccccc1)CO (stereo partly drawn) [Compound 36, 1-Cyanocyclopentyl (((E)-5-hydroxy-4-methylpent-3-en-1-yl)(phenoxy)phosphoryl)-L-alaninate] | – | < 0.05 nM | 3.08 min | 0.038
C/C(=C\CCP(=O)(N[C@@H](C)C(=O)OC1CCS(=O)(=O)CC1)Oc1ccccc1)CO (stereo partly drawn) [Compound 28, 1,1-Dioxotetrahydro-2H-thiopyran-4-yl (((E)-5-hydroxy-4-methylpent-3-en-1-yl)(phenoxy)phosphoryl)-L-alaninate] | 0.88 nM | – | – | –
C/C(=C\CC(F)(F)P(=O)(N[C@@H](C)C(=O)O[C@@H]1CCOC1)Oc1ccccc1)CO (stereo partly drawn) [Compound 37, (R)-tetrahydrofuran-3-yl (((E)-1,1-difluoro-5-hydroxy-4-methylpent-3-en-1-yl)(phenoxy)phosphoryl)-L-alaninate] | – | 0.2 nM | 8.11 min | 0.098
C/C(=C\CCP(=O)(N[C@@H](C)C(=O)OC1CC2(COC2)C1)Oc1ccccc1)CO (stereo partly drawn) [Compound 30, 2-Oxaspiro[3.3]heptan-6-yl (((E)-5-hydroxy-4-methylpent-3-en-1-yl)(phenoxy)phosphoryl)-L-alaninate] | – | 0.11 nM | 24.4 min | 0.359
C/C(=C\CCP(=O)(N[C@@H](C)C(=O)O[C@H]1C[C@@H](C)O[C@@H](C)C1)Oc1ccccc1)CO (stereo partly drawn) [Compound 34, (2R,4r,6S)-2,6-dimethyltetrahydro-2H-pyran-4-yl (((E)-5-hydroxy-4-methylpent-3-en-1-yl)(phenoxy)phosphoryl)-L-alaninate] | 1.03 nM | – | – | –
CC(=O)N1CCC(OC(=O)[C@H](C)NP(=O)(CC/C=C(\C)CO)Oc2ccccc2)CC1 (stereo partly drawn) [Compound 29] | 1.63 nM | – | – | –
C[C@H](NP(=O)(CC/C=C(/CO)C(F)(F)F)Oc1ccccc1)C(=O)O[C@@H]1CCOC1 (stereo partly drawn) [Compound 27, (R)-tetrahydrofuran-3-yl (phenoxy((Z)-5,5,5-trifluoro-4-(hydroxymethyl)pent-3-en-1-yl)phosphoryl)-L-alaninate] | – | 0.23 nM | 10.5 min | 0.193
C/C(=C\CCP(=O)(N[C@@H](C)C(=O)O[C@@H]1CCNC(=O)C1)Oc1ccccc1)CO (stereo partly drawn) [Compound 35, (R)-2-piperidone-4-yl (((E)-5-hydroxy-4-methylpent-3-en-1-yl)(phenoxy)phosphoryl)-L-alaninate] | – | 2.15 nM | 82.5 min | 0.429
C/C(=C\CCP(=O)(N[C@@H](C)C(=O)O[C@@H]1CCO[C@H](C)C1)Oc1ccccc1)CO (stereo partly drawn) [Compound 33] | – | 0.65 nM | 19.9 min | 0.192
